Series [1] addresses T1, type VI-S porcine pancreatic lipase (Sus scrofa, UniProt P00591).
T1 construct: purchased Sigma type VI-S (catalogue number not given)
T1 sequence (P00591 1-450): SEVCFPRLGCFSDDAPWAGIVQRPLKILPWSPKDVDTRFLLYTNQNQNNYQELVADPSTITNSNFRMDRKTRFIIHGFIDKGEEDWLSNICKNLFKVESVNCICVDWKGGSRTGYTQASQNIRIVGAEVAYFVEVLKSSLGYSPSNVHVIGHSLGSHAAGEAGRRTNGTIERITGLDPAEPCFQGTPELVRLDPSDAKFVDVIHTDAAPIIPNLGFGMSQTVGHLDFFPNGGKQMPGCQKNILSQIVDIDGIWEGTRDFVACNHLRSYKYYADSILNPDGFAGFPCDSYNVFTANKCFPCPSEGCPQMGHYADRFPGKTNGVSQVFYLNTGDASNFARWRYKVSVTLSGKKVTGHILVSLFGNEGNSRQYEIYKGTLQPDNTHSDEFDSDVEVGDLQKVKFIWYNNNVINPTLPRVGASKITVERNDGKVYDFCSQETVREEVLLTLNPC
Put plainly: Pancreatic lipase assay (pH-stat titration, triolein substrate). The series is classed as biochemical. Also noted: Ymax: unit not given here. The settings on record: for Ymax / k: 7.0 nM lipase, 700 nM inhibitor, pH 8.0; for Ymax: Ymax of the fit Y=Ymax*(1-exp(-k*X)); for k: k fitted for the 12.5 min after inhibitor addition, Y=Ymax*(1-exp(-k*X)); for inhibition at 0.7 µM: 12.5 min. How it is done:
The use of a pancreatic lipase assay has been described in the literature (Hadvary, P. et al. Biochem. J. (1988) 256: 357-361; Hadvary, P. et al. Biochem. J. (1991) 266:2021-2027). Pancreatic lipase activity was measured using a 718 Stat Titrino (Brinkmann) programmed to maintain a pH of 8.0 using 0.1 N NaOH. The substrate mixture (pH 8) contained 1 mM taurochenodeoxycholate (Sigma), 9 mM taurodeoxycholate (Sigma), 0.1 mM cholesterol (Sigma), 1 mM phosphatidylcholine (Sigma), 1.5% BSA, 2 mM Tris base, 100 mM NaCl, 10 mM CaCl2, and 3% triolein (Sigma). The mixture (5 mL) was emulsified via sonication at room temperature, and added to the titration vessel with rapid stirring. The Stat Titrino was turned on and lipase (7.0 nM type VI-S porcine pancreatic lipase (Sigma) dissolved in PBS) was added to the vessel. After 10 min, inhibitor (700 nM dissolved in 100% DMSO) was added and the reaction continued for an additional 12.5 min. The k values were determined for the 12.5 min after the addition of the inhibitor using a one phase exponential association equation, Y=Ymax*(1−exp(−k*X)), k values for lipase alone were 0.0004±0.0001 sec. The k values for compounds disclosed herein are >0.0004±0.0001 sec.

What is called melting point is the temperature of the solid-liquid transition. Compound `CCCCCCCCOC(=O)c1sc2nc(OCCCCCCCC)oc(=O)c2c1C` [Entry 9, 5-Methyl-2-octyloxy-4-oxo-4H-thieno[2,3-d][1,3]oxazine-6-carboxylic acid octyl ester] came in with a melting point of 58.5 to 60.2 °C. In series [1], the Ymax worked out at 0.286 and the k is 0.924 10-3.s-1.
The compound `CCCCCCCCOC(=O)c1sc2nc(OC(C)C)oc(=O)c2c1C` [Entry 12, 2-iso-Propoxy-5-methyl-4-oxo-4H-thieno[2,3-d][1,3]oxazine-6-carboxylic acid octyl ester] yielded a melting point of 47.5 to 48 °C. Besides, the k in series [1] is 0.438 10-3.s-1.
Take `CCCCCCCCNc1nc2sc(C(=O)OCc3ccccc3)c(C)c2c(=O)o1` [Entry 16, 5-Methyl-2-octylamino-4-oxo-4H-thieno[2,3-d][1,3]oxazine-6-carboxylic acid benzyl ester]: the melting point fell in the range of 153.5 to 154 °C. Moreover, the k in series [1] is given as 1.711 10-3.s-1.
One may read the inhibition as the drop in the measured response relative to a control, in per cent. Regarding `CCCCCCCCNC(=O)c1sc2nc(NCCCCCCCC)oc(=O)c2c1C` [Entry 18, 5-Methyl-2-octylamino-4-oxo-4H-thieno[2,3-d][1,3]oxazine-6-carboxylic acid octylamide], the melting point was in the range of 152 to 152.8 °C. In addition, in series [1], the k is 1.036 10-3.s-1 and the inhibition at 0.7 µM came to 18%.
As for `CCCCCCCCNc1nc2sc(C(=O)N3CCN(CCN4CCCCC4)CC3)c(C)c2c(=O)o1` [Entry 53, 5-Methyl-2-octylamino-6-[4-(2-piperidin-1-yl-ethyl)-piperazine-1-carbonyl]-thieno[2,3-d][1,3]oxazin-4-one], in series [1], the k was 0.166 10-3.s-1.
Take `CCCCCCCCNc1nc2sc(C(=O)NCC(C)C)c(C)c2c(=O)o1` [Entry 54, 5-Methyl-2-octylamino-4-oxo-4H-thieno[2,3-d][1,3]oxazine-6-carboxylic acid isobutyl-amide]: the k in series [1] was 0.702 10-3.s-1.
Take `CCCCCCCCNc1nc2sc(C(=O)NCc3ccncc3)c(C)c2c(=O)o1` [Entry 55, 5-Methyl-2-octylamino-4-oxo-4H-thieno[2,3-d][1,3]oxazine-6-carboxylic acid (pyridin-4-ylmethyl)-amide]: in series [1], the k is reported as 0.754 10-3.s-1.
Same read-out and setting: the result for `CCCCCCCCNc1nc2sc(C(=O)OCc3ccccc3)c(C)c2c(=O)s1` [Entry 56, 5-Methyl-2-octylamino-4-oxo-4H-thieno[2,3-d][1,3]thiazine-6-carboxylic acid benzyl ester] reads 0.114 10-3.s-1; that for `CCCCCCCCN(CCCCCCCC)c1nc2sc(C(=O)OCc3ccccc3)c(C)c2c(=O)o1` [Entry 60, 2-Dioctylamino-5-methyl-4-oxo-4H-thieno[2,3-d][1,3]oxazine-6-carboxylic acid benzyl ester], 0.013 10-3.s-1.
Regarding `CCCCCCCCNc1nc2sc(C(=O)N3CCN(CC(=O)NC(C)C)CC3)c(C)c2c(=O)o1` [Entry 64, N-Isopropyl-2-(4-(5-methyl-2-octylamino-4-oxo-4H-thieno(2,3-d)(1,3)oxazine-6-carbonyl)-piperazin-1-yl)-acetamide], in series [1], the Ymax amounted to 3.917 and the k is reported as 0.176 10-3.s-1.
On to `CCCCCCCCCCCc1nc2sc(CCCCCCC)cc2c(=O)o1` [Entry 67, 6-Heptyl-2-undecyl-thieno[2,3-d][1,3]oxazin-4-one], for which, in series [1], the Ymax stood at 10.973 and the k is 0.064 10-3.s-1.
On to `CCCCCCCCOc1nc2sc(CCCCCCC)cc2c(=O)o1` [Entry 68, 6-Heptyl-2-octyloxy-thieno[2,3-d][1,3]oxazin-4-one], for which, in series [1], the Ymax turned out to be 0.020, the k is reported as 5.825 10-3.s-1 and the inhibition at 0.7 µM stood at 78.9%.
As for `CCCCCCCCNc1nc2sc(C(=O)NCCOc3ccccc3)c(C)c2c(=O)o1` [Entry 70, 5-Methyl-2-octylamino-4-oxo-4H-thieno(2,3-d)(1,3)oxazine-6-carboxylic acid (2-phenoxy-ethyl)-amide], in series [1], the Ymax is reported as 0.140 and the k is reported as 1.999 10-3.s-1.
The like results for `CCCCCCC(C)Nc1nc2sc(C(=O)OCc3ccccc3)c(C)c2c(=O)o1` (centres unmarked) [Entry 71, 5-Methyl-2-(1-methylheptylamino)-4-oxo-4H-thieno[2,3-d][1,3]oxazine-6-carboxylic acid benzyl ester] were, in that order, 14.657 and 0.086 10-3.s-1.
The like results for `CCCCCCCCNc1nc2sc(C(=O)NCCOC)c(C)c2c(=O)o1` [Entry 72, 5-Methyl-2-octylamino-4-oxo-4H-thieno(2,3-d)(1,3)oxazine-6-carboxylic acid (2-methoxy-ethyl)-amide] were, in that order, 0.185 and 1.102 10-3.s-1.
The matching figures for `CCCCCCCCNc1nc2sc(C(=O)NCCCOC)c(C)c2c(=O)o1` [Entry 73, 5-Methyl-2-octylamino-4-oxo-4H-thieno(2,3-d)(1,3)oxazine-6-carboxylic acid (3-methoxy-propyl)-amide]: 1.594 and 0.794 10-3.s-1.
Consider `CCCCCCCCOc1nc2sc(CCCC)cc2c(=O)o1` [Entry 75, 6-Butyl-2-octyloxy-thieno[2,3-d][1,3]oxazin-4-one], for which, in series [1], the Ymax is recorded as 0.054 and the k is 2.219 10-3.s-1.
Take `CCCCCCCCOc1nc2sc(C(C)C)cc2c(=O)o1` [Entry 76, 6-Isopropyl-2-octyloxy-thieno[2,3-d][1,3]oxazin-4-one]: in series [1], the Ymax is given as 0.161 and the k is 1.288 10-3.s-1.
The like results for `CCCCCCCCOc1nc2sc(Cc3ccccc3)cc2c(=O)o1` [Entry 77, 6-Benzyl-2-octyloxythieno[2,3-d][1,3]oxazin-4-one] were, in that order, 0.482 and 0.392 10-3.s-1.
Regarding `CCCCCCCCOc1nc2sc(C(C)CC(C)(C)C)cc2c(=O)o1` (centres unmarked) [Entry 78, 2-Octyloxy-6-(1,3,3-trimethyl-butyl)-thieno[2,3-d][1,3]oxazin-4-one], in series [1], the Ymax worked out at 0.126, the k is 1.315 10-3.s-1 and the inhibition at 0.7 µM came out at 17.9%.
On to `CCCCCCCCOc1nc2sc(C(C)CCCC(C)(C)OC)cc2c(=O)o1` (centres unmarked) [Entry 83, 6-(5-Methoxy-1,5-dimethyl-hexyl)-2-octyloxy-thieno[2,3-d][1,3]oxazin-4-one], for which the inhibition at 0.7 µM in series [1] worked out at 36.9%.
With `CCCCCCCCOc1nc2sc(CCCCCC)cc2c(=O)o1` [Entry 84, 6-Hexyl-2-octyloxythieno[2,3-d][1,3]oxazin-4-one], in series [1], the Ymax came out at 0.029, the k is on record as 3.033 10-3.s-1 and the inhibition at 0.7 µM worked out at 71.3%.
For `CCCCCCCCOc1nc2sc(CCCCCCCC)cc2c(=O)o1` [Entry 85, 6-Octyl-2-octyloxy-thieno[2,3-d][1,3]oxazin-4-one], the inhibition at 0.7 µM in series [1] was 96.1%.
Same read-out and setting: in the case of `CCCCCCCCCCc1cc2c(=O)oc(OCCCCCCCC)nc2s1` [Entry 86, 6-Decyl-2-octyloxythieno[2,3-d][1,3]oxazin-4-one] it was 73.6%; in that of `CCCCCCCCCCCCc1cc2c(=O)oc(OCCCCCCCC)nc2s1` [Entry 88, 6-Dodecyl-2-octyloxy-thieno[2,3-d][1,3]oxazin-4-one], 74.2%; in that of `CCCCCCC(C)Oc1nc2sc(C(=O)OCc3ccccc3)c(C)c2c(=O)o1` (centres unmarked) [Entry 89, 5-Methyl-2-(1-methylheptyloxy)-4-oxo-4H-thieno[2,3-d][1,3]oxazine-6-carboxylic acid benzyl ester], -14.1%.
On the same count and under the same terms, in the case of `CCCCCCCCCCc1cc2c(=O)oc(OC(C)CCCCCC)nc2s1` (centres unmarked) [Entry 90, 6-Decyl-2-(1-methylheptyloxy)thieno[2,3-d][1,3]oxazin-4-one] it was 15%.
For `CCCCCCCc1cc2c(=O)oc(OC(C)CCCCCC)nc2s1` (centres unmarked) [Entry 91, 6-Heptyl-2-(1-methylheptyloxy)thieno[2,3-d][1,3]oxazin-4-one], the inhibition at 0.7 µM in series [1] was found to be 12.4%.
Same read-out and setting: in the case of `CCCCCCCCc1cc2c(=O)oc(OCCCCCC)nc2s1` [Entry 94] it was 83%; in that of `CCCCCCCCc1cc2c(=O)oc(OCCCC)nc2s1` [Entry 95], 60.3%.
In turn, `CCCCCCCCCCc1cc2c(=O)oc(OCCOC)nc2s1` [Entry 96, 6-Decyl-2-(2-methoxy-ethoxy)-thieno[2,3-d][1,3]oxazin-4-one] yielded a melting point of 38 to 41 °C.
For `CCCCCCCCCCc1cc2c(=O)oc(Oc3ccc(CCCC)cc3)nc2s1` [Entry 102, 2-(4-Butyl-phenoxy)-6-decyl-thieno[2,3-d][1,3]oxazin-4-one], the melting point was 55 to 58 °C.

The record behind these values is US7064122B2, “Pancreatic lipase inhibitor compounds, their synthesis and use” (OSI Pharmaceuticals, Inc., priority 2001, dated 2006).
